This is an account of results in patent US4024082A, “Analgesics” (priority 1975, dated 1977).

As usually defined, the ED50 is the dose that gives a 50% effect, or the effect in half of the subjects.

Data set [1] is described as follows: Morphine analgesia (Haffner method). It is filed as in vivo, male mice dd strain. The following applies: subcutaneously. How it is done:
(§1) The dl-KMG-86, d-KMG-86 and l-KMG-86 were all screened for their biological activity by the assays described in the reference J. Med. Chem. 16, 301 (1973). All three compounds were screened for their analgesic activity by the acetic acid induced stretching method of R. Kosta, Fed. Proc., Fed. Amer. Soc. Exp. Biol., 18, 412 (1959). Male albino mice dd strain (18.0-22.0 g.) were used. After the compounds were administered subcutaneously to five groups of animals consisting of ten mice per group, the effective ratio until 60 minutes was examined and the effective dose in 50% of the mice (ED50) was calculated by the Lichfield-Wilcoxin method [J. T. Lichfield and F. Wilcoxin, J. Pharmacol., 96, 99 (1949)]. […] Med. Wochenschr., 55, 731 (1929)], in which ten male mice dd strain per group were used.

Data set [2] concerns acetic acid induced stretching. The data set is described as follows: Analgesic activity, acetic acid induced stretching method. It is filed as in vivo, male albino mice dd strain. The conditions noted are these: for ED50, Mean Value: 60 min. How it is done: as §1
The conditions of data set [3]: as described in U.S. Pat. No. 3,728,347; cited from earlier work.
For data set [4] the following is noted: humans; cited from earlier work.
The conditions of data set [5]: J. Med. Chem. 16, 301 (1973); cited from earlier work.
The conditions of data set [6]: as described in U.S. Pat. No. 3,728,347; cited from earlier work. This is another data set of the same source.
The test system of a further data set is morphine analgesia. The data set is described as follows: Antagonism of morphine analgesia, Haffner method. It counts as in vivo, male mice dd strain. The following applies: morphine 16 mg/kg subcutaneously. Here is the method:
as §1

A further data set in a line: Side effects or toxicity. The conditions noted are these: in vivo.
The mark [7] stands for this setting: stretching method, subcutaneous, effective ratio until 60 minutes, Lichfield-Wilcoxin method.

`CN1CC[C@]23c4c5ccc(O)c4O[C@H]2[C@@H](O)C=C[C@H]3[C@H]1C5` [morphine]: the ED100 of morphine in data set [1] is on record as 16 mg/kg.
With `CC(C)=CCN1CCC2(C)c3cc(O)ccc3CC1C2C` (centres unmarked) [Pentazocine, reference compound], the ED50 in data set [2] (Mus musculus, sc, 1 h, stretching method, subcutaneous, effective ratio until 60 minutes, Lichfield-Wilcoxin method) was found to be 2.4 mg/kg.
`Oc1ccc2c(c1)C13CCCCC1N(C2)N(CC1CC1)CC3` (racemic) [dl-KMG-86, dl-N-cyclopropylmethyl-3-hydroxy-9-azamorphinan]: the “analgesic activity compared with morphine” value in data set [3] is “remarkable analgesic activity as strong as that possessed by morphine”. Besides, in data set [2] (setting [7]), the “ED50, Mean Value” was 1.63 mg/kg. For the same compound, the “confirmation in clinical studies of the activity found in mice” value in data set [4] is given as “The activity found in mice was confirmed in clinical studies in humans”. In data set [5], the “activity relative to pentazocine” value is recorded as “about twice as active as pentazocine”. For the same compound, in data set [6], the opiate dependence liability entry is on record as “lacking opiate dependence liability”. Besides, in the data set on morphine analgesia, the “Antagonist Dose (AD50)” value was 4.70 mg/kg, S. C.
For the compound `Oc1ccc2c(c1)C13CCCCC1N(C2)N(CC1CC1)CC3` (stereo not drawn) [l-KMG-86, l-N-cyclopropylmethyl-3-hydroxy-9-azamorphinan], the “side effects or toxicity” value in “Side effects or toxicity” is “no substantial side effects or toxicity”. In data set [2] (from Table I ED50 (stretching method)), the “potency of l-isomer relative to dl-mixture” value is reported as “about 3.5 fold”. Also, the “ED50, Mean Value” in data set [2] (setting [7]) came out at 0.45 mg/kg. The “Antagonist Dose (AD50)” value in the data set with morphine analgesia is reported as 2.20 mg/kg, S. C.
`Oc1ccc2c(c1)C13CCCCC1N(C2)N(CC1CC1)CC3` (stereo not drawn) [d-KMG-86, d-N-cyclopropylmethyl-3-hydroxy-9-azamorphinan]: in data set [2] (setting [7]), the “ED50, Mean Value” is on record as “ca. 80 mg/kg”. In addition, the “Antagonist Dose (AD50)” value with morphine analgesia was 20 mg/kg, S. C.
